Here are results for one compound from patent US10316021B2, “Heteroarylphenoxy benzamide kappa opioid ligands” (Pfizer Inc., priority 2016, dated 2019).

pIC50, pKi: −log10 of the molar value. Entries after “also recorded” stand apart in the source; their conditions may differ. Like-named read-outs stand apart in the source and are kept apart here.

In assay [1] the target is T1, human kappa opioid receptor (hKOR) (Homo sapiens, UniProt P41145).
T1 construct: expressed in transfected cells; host or cells: CHO cells
The experiment in a line: Kappa radioligand binding assay ([3H]diprenorphine, CHO cell membranes). To be noted: for pKi: read-out: hKOR binding assay Ki. The essentials:
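Membranes from CHO cells expressing human kappa receptor incubated 1 h at room temperature with compound and 0.6 nM [3H]diprenorphine in 50 mM Tris pH 7.4, 1 mM EDTA, 5 mM MgCl2. Nonspecific binding defined with 10 μM naltrexone; filtration, scintillation counting; IC50 from 4-parameter fit converted to Ki via Cheng-Prusoff.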

In assay [2] the target is T2, human mu opioid receptor (hMOR) (Homo sapiens, UniProt P35372).
T2 construct: expressed in transfected cells; host or cells: CHO cells
The experiment in a line: Mu radioligand binding assay ([3H]diprenorphine, CHO cell membranes). Particulars: read-out: hMOR binding assay Ki. The procedure, abridged: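 Membranes from CHO cells expressing human mu receptor were incubated 1 h at room temperature with [3H]diprenorphine (0.5 nM final) in Tris pH 7.4 buffer with EDTA and MgCl2; naltrexone (10 μM) defined non-specific binding. Filter-bound radioactivity was counted; Ki derived by Cheng-Prusoff from IC50.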

For assay [3], the target named is T3, kappa opioid receptor (Mus musculus, UniProt P33534).
T3 construct: from tissue; host or cells: brain of adult male C57BL/6J mice (in vivo)
The assay can be described thus: In vivo receptor occupancy (displacement of [3H]GR103545 in brain). To be noted: subcutaneous dosing. The source says: (§1) Adult male C576BL/J6 mice from Jackson Labs (Bar Harbor, Me.) were group housed on individually-vented cage racks, in environmentally-controlled animal quarters (light/dark-6:00 am/6:[…]) for a minimum of 7 days prior to use. For progressive ratio studies, mice were food-restricted to 80-85% of their body weight before testing began. All animal procedures were approved by the Pfizer Inc. IACUC and conducted in accordance with the NIH Guide for the Care and Use of Laboratory Animals.
In Vivo Receptor Occupancy
In vivo receptor occupancy was assessed in adult male C57BL6/J mice. Mice were administered increasing doses (0.001-32 mg/kg s.c.) 30 min prior to administration of the kappa opioid receptor ligand, [^3H]GR103545 (100 μCi/kg, intraorbital). Animals were euthanized 10 min later using cervical dislocation and the brains dissected. One hemisphere was stored at −40° C. for subsequent measurement of compound concentration, the other was homogenized in chilled Tris-HCl buffer (50 mM, pH 7.4; 1:10 w/v) for twenty seconds. Samples of brain homogenate were filtered through 0.3 to 0.5% PEI-soaked GF/B filters, and the filters washed twice with chilled buffer before radioactivity was counted overnight using a scintillation counter. Binding of the ligand in cerebellum was used to determine non-specific binding.
(In general: In a radioligand displacement assay an active substance lowers the binding of a labelled ligand.)

Assay [4] addresses T3, kappa opioid receptor. The experiment in a line: Progressive ratio responding (reversal of spiradoline-induced deficit in motivation). To be noted: co-administered with spiradoline, receptor occupancy measured in a separate group of animals. In kind it is in vivo.
Text: as §1
Progressive Ratio Responding:
Motivation and food-reinforced operant behavior were assessed in the progressive ratio assay. Adult male C576BL/J6 mice were food-restricted to 80-85% of their body weight over a period of one week and kept in their home cages. Mice were trained to nose-poke for a food reward. […] Mice were assessed in a 60 minute session, where the number of rewards obtained was used as a surrogate of the level of motivation. Once mice had reached a stable level of responding, mice were dosed with the kappa opioid receptor agonist, spiradoline (3.2 mg/kg s.c.), to induce a deficit in motivation. Mice were co-administered increasing doses of the kappa opioid receptor antagonists (0.0032-3.2 mg/kg s.c.) to assess their ability to antagonize the spiradoline-induced deficit.

The mark [5] stands for this setting: Table 19, geometric mean of 2-6 determinations unless otherwise indicated (Example 3: >=7).

T1 sequence (P41145 whole entry): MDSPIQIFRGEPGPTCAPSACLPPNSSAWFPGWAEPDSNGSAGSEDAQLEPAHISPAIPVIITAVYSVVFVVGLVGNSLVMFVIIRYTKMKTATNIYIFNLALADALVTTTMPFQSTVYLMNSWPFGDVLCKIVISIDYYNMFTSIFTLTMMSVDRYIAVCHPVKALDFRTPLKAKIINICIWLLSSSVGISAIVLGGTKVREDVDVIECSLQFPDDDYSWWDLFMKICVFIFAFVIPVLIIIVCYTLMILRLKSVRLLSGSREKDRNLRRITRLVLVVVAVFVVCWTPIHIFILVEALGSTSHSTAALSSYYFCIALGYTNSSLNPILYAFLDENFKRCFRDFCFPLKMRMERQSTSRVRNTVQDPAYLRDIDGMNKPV
T3 sequence (P33534 whole entry): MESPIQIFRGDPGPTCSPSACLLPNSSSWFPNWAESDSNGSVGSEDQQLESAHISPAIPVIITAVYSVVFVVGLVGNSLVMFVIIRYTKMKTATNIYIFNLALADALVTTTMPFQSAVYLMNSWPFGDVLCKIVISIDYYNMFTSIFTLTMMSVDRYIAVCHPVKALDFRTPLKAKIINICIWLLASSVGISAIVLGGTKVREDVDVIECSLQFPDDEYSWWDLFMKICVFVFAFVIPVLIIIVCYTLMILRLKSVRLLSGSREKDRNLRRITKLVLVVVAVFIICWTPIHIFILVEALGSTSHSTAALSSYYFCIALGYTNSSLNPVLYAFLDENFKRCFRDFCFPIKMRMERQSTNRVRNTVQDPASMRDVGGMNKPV
T2 sequence (P35372 whole entry): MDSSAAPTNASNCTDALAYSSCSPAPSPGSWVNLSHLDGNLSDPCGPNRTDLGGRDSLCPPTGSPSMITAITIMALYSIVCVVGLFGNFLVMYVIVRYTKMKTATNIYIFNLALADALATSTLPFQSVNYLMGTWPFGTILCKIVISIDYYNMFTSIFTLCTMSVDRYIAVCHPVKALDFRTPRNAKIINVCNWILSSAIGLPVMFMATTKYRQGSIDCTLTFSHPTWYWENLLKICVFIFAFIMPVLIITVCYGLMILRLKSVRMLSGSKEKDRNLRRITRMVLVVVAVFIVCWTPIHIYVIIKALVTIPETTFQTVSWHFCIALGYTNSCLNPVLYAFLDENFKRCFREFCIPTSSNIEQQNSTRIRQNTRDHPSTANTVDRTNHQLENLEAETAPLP

Usually pKi stands for the negative decadic logarithm of the Ki, by convention in mol/L. For orientation: pIC50 means the IC50 on a negative log10 scale, so that one unit is a factor of ten. On to `Cc1cc([C@@H]2CCCN2Cc2ccc(Oc3ccc(C(N)=O)cc3F)cc2)n(C)n1` [Example 45, 4-(4-{[(2S)-2-(1,3-dimethyl-1H-pyrazol-5-yl)pyrrolidin-1-yl]methyl}phenoxy)-3-fluorobenzamide], for which the “KOR potency, in words” value in assay [1] is “excellent potency”. The “selectivity for KOR over MOR, in words” value in assay [1] was “excellent potency and selectivity over MOR; also recorded: more selective than the phenyl examples, Comparators A and B”. For the same compound, the pKi is 8.77 in assay [1] (setting [5]); 8.77 in assay [1] (Table 20, radioligand binding); 6.97 in assay [2] (setting [5]); 6.97 in assay [2] (Table 20, radioligand binding). Besides, the “Selectivity hMOR/hKOR” value in assay [1] (selectivity ratio calculated by dividing the hMOR Ki by the hKOR Ki) is given as 64. At kappa opioid receptor [3], the “displacement of KOR agonist radioligand binding in the brain, in words” value is “displaced KOR agonist radioligand ([^3H]GR103545) binding in the brain in an exposure-dependent manner”. Also, on kappa opioid receptor [3] (displacement of [3H]GR103545, unbound brain concentration, read-out: Mouse KOR IVRO unbound brain IC50), the pIC50 is 9.60. Besides, at kappa opioid receptor [4], the “% KOR IVRO to achieve 50% PR reversal” value came to 85%.
